Results taken from patent publication US20080021056A1, “Fused, Tricyclic Sulfonamide Inhibitors of Gamma Secretase” (priority 2006, published 2008).
Where “and” joins values, the source holds several entries; their conditions need not be identical. Equal entries are not always repeated.

What follows are molecules tested against T1, gamma-secretase (Homo sapiens, UniProt P49768) (assay: Gamma-secretase APP enzyme assay). Conditions: cleavage of MBP-C125 Swe substrate at the Aβ40 site; partially purified extract of IMR-32 cell membranes; ELISA.
T1 construct: partially purified extract of IMR-32 cell membranes as the gamma-secretase enzyme preparation; endogenous in cells; host or cells: IMR-32 cell membranes (partially purified extract)
Type: biochemical
From the text: The gamma-secretase APP enzyme assay was designed to measure the specific proteolytic cleavage of an APP substrate (MBP-C125 Swe fusion protein) at the Aβ40 site. The assay used a partially purified extract of IMR-32 cell membranes as the gamma-secretase enzyme preparation and a recombinant fusion protein containing the C-terminal 125 amino acids of the Swedish variant of the APP (MBP-C125swe) as the substrate. This assay involved two steps beginning with the enzymatic reaction generating a cleavage product that was captured with an immobilized antibody specific for the neo-epitope Aβ40 site. The captured cleavage product was then detected in a sandwich ELISA assay with a biotinylated reporter antibody that is specific to Aβ (17-28). Streptavidin-linked alkaline phosphatase was then added that would generate a fluorescent signal proportional to the amount of cleavage product. This assay was used to discover small molecule inhibitors of gamma-secretase.
Briefly, a 149 mg/ml solution of BIGCHAP detergent was made with water at 42° C. and then rotated for 30 minutes at the same temperatures This warmed solution of BigCHAPS (N,N-Bis(3-D-gluconamidopropyl)cholamide) detergent was used to dissolve Brain Extract Type-V (lipid containing a minimum of 40% phosphatidylethanolamine) from Signa (St. Louis, Mo.) to a concentration of 8 mg/ml. This solution containing BigCHAPS and lipid at 8 mg/ml is then diluted to 0.53 mg/ml lipid with a pre-warmed solution of Hepes and sodium chloride. This final solution containing Hepes buffer, sodium chloride, BigCHAPS detergent and lipid is used to create working solutions of both gamma-secretase (25 Units) and the MBP-C125 substrate (0.05 mg/ml).
Gamma-secretase was then added to a 96-well micro-titre plate and then incubated with various concentrations of inhibitor for 30 minutes at 37° C. MBPC125 substrate was then added to initiate the reaction that would run for two hours at 37° C. The reaction was quenched with the addition of SDS to a final concentration of 0.1% and then 100 μl of the reaction mixture was transferred to a capture ELISA plate and incubated overnight at 4° C. Detection of the cleavage product was performed using a standard sandwich ELISA assay and quantified using a six point standard curve.

SMILES | IC50
CC1c2cn[nH]c2-c2cc(F)c(F)cc2N1S(=O)(=O)c1ccc(Cl)s1 (stereo not drawn) [5-(5-chlorothiophen-2-ylsulfonyl)-7,8-difluoro-4-methyl-4,5-dihydro-1H-pyrazolo[4,3-c]quinoline] | 0.0001 to 0.1 µM
O=c1c2cn[nH]c2c2ccccc2n1S(=O)(=O)c1ccc(Cl)cc1 [5-[(4-chlorophenyl)sulfonyl]-1,5-dihydro-4H-pyrazolo[4,3-c]quinolin-4-one] | 0.101 to 0.5 µM
Cc1n[nH]c2c1CN(S(=O)(=O)c1ccc(Cl)cc1)c1ccccc1-2 [5-[(4-chlorophenyl)sulfonyl]-3-methyl-4,5-dihydro-1H-pyrazolo[4,3-c]quinoline] | 1 to 10 µM
O=S(=O)(c1ccc(Cl)cc1)N1Cc2c[nH]nc2-c2ccccc21 [5-[(4-chlorophenyl)sulfonyl]-4,5-dihydro-1H-pyrazolo[4,3-c]quinoline] | 0.0001 to 0.1 µM
O=S(=O)(c1ccc(Cl)cc1)N1Cc2c(O)n[nH]c2-c2ccccc21 [5-[(4-chlorophenyl)sulfonyl]-4,5-dihydro-1H-pyrazolo{4,3-c]quinolin-3-ol] | 1 to 10 µM
CC1c2cn[nH]c2-c2ncccc2N1S(=O)(=O)c1ccc(Cl)cc1 (stereo not drawn) [5-[(4-chlorophenyl)sulfonyl]-4-methyl-4,5-dihydro-1H-pyrazolo[4,3-c]-1,5-naphthyridine] | 0.0001 to 0.1 µM
O=S(=O)(c1ccc(Cl)cc1)N1Cc2c[nH]nc2-c2ccc(F)cc21 [5-[(4-chlorophenyl)sulfonyl]-7-fluoro-4,5-dihydro-2H-pyrazolo[4,3-c]quinoline] | 0.0001 to 0.1 µM
COc1ccc2c(c1)N(S(=O)(=O)c1ccc(Cl)cc1)C(C)c1c[nH]nc1-2 (stereo not drawn) [5-[(4-chlorophenyl)sulfonyl]-7-methoxy-4-methyl-4,5-dihydro-1H-pyrazolo[4,3-c]quinoline] | 0.0001 to 0.1 µM
O=S(=O)(c1ccc(Cl)cc1)N1Cc2c[nH]nc2-c2cc(F)ccc21 [5-[(4-chlorophenyl)sulfonyl]-8-fluoro-4,5-dihydro-2H-pyrazolo[4,3-c]quinoline] | 0.0001 to 0.1 µM
COc1cccc2c1-c1[nH]ncc1C(C)N2S(=O)(=O)c1ccc(Cl)cc1 (stereo not drawn) [5-[(4-chlorophenyl)sulfonyl]-9-methoxy-4-methyl-4,5-dihydro-1H-pyrazolo[4,3-c]quinoline] | 1 to 10 µM
O=S(=O)(c1ccc(Cl)cc1)N1Cc2c[nH]nc2-c2c(F)cccc21 [5-[(4-chlorophenyl}sulfonyl]-9-fluoro-4,5-dihydro-2H-pyrazolo[4,3-c]quinoline] | 0.0001 to 0.1 µM
O=S(=O)(c1ncc(Cl)s1)N1c2cc(F)c(F)cc2-c2n[nH]cc2C1C1CC1 (stereo not drawn) [5-chloro-2-(4-cyclopropyl-7,8-difluoro-1H-pyrazolo[4,3-c]quinolin-5(4H)-ylsulfonyl)thiazole] | 0.0001 to 0.1 µM
O=S(=O)(c1ccc(C(F)(F)F)cc1)N1c2ccccc2-c2[nH]ncc2C12CC2 [5′-(4-(trifluoromethyl)phenylsulfonyl)-1′,5′-dihydrospiro[cyclopropane-1,4′-pyrazolo[4,3-c]quinoline]] | 0.0001 to 0.1 µM
O=S(=O)(c1ccc(Cl)cc1)N1c2ccccc2-c2n[nH]cc2C12CC2 [5′-(4-chlorophenylsulfonyl)-2′,5′-dihydrospiro[cyclopropane-1,4′-pyrazolo[4,3-c]quinoline]] | 0.0001 to 0.1 µM
CCC1N(S(=O)(=O)c2ccc(Cl)cc2)c2ccccc2-c2ccnn21 (stereo not drawn) [6-(4-chlorophenylsulfonyl)-5-ethyl-5,6-dihydropyrazolo[1,5-c]quinazoline] | 0.101 to 0.5 µM
O=S(=O)(c1ccc(C(F)(F)F)cc1)N1c2cc(F)c(F)cc2-c2[nH]ncc2C1c1cccnc1 (stereo not drawn) [7,8-difluoro-4-(pyridin-3-yl)-5-(4-(trifluoromethyl)phenylsulfonyl)-4,5-dihydro-1H-pyrazolo[4,3-c]quinoline] | 0.0001 to 0.1 µM
CC(C)C1c2c[nH]nc2-c2cc(F)c(F)cc2N1S(=O)(=O)c1ccc(C(F)(F)F)cc1 (stereo not drawn) [7,8-difluoro-4-isopropyl-5-(4-(trifluoromethyl)phenylsulfonyl)-4,5-dihydro-2H-pyrazolo[4,3-c]quinoline] | 0.0001 to 0.1 µM
CC1c2c[nH]nc2-c2cc(F)c(F)cc2N1S(=O)(=O)c1cccs1 (stereo not drawn) [7,8-difluoro-4-methyl-5-(thiophen-2-ylsulfonyl)-4,5-dihydro-2H-pyrazolo[4,3-c]quinoline] | 0.0001 to 0.1 µM
O=S(=O)(c1ccc(C(F)(F)F)cc1)N1Cc2c[nH]nc2-c2cc(F)c(F)cc21 [7,8-difluoro-5-(4-(trifluoromethyl)phenylsulfonyl)-4,5-dihydro-2H-pyrazolo[4,3-c]quinoline] | 0.0001 to 0.1 µM
CC1c2c[nH]nc2-c2cc(Cl)sc2N1S(=O)(=O)c1ccc(C(F)(F)F)cc1 (stereo not drawn) [7-chloro-4-methyl-5-(4-(trifluoromethyl)phenylsulfonyl)-4,5-dihydro-1H-pyrazolo[3,4-d]thieno[2,3-b]pyridine] | 0.0001 to 0.1 µM
O=S(=O)(c1ccc(Cl)cc1)N1Cc2c[nH]nc2-c2cc(Cl)ccc21 [8-chloro-5-[(4-chlorophenyl)sulfonyl]-4,5-dihydro-2H-pyrazolo[4,3-c]quinoline] | 0.501 to 1 µM
CC1c2c[nH]nc2-c2cc(F)ccc2N1S(=O)(=O)c1cn(C)cn1 (stereo not drawn) [8-fluoro-4-methyl-5-(1-methyl-1H-imidazol-4-ylsulfonyl)-4,5-dihydro-1H-pyrazolo[4,3-c]quinoline] | 1 to 10 µM
CC1c2c[nH]nc2-c2cc(F)ccc2N1S(=O)(=O)c1cnn(C)c1 (stereo not drawn) [8-fluoro-4-methyl-5-(1-methyl-1H-pyrazol-4-ylsulfonyl)-4,5-dihydro-1H-pyrazolo[4,3-c]quinoline] | 0.101 to 0.5 µM
CC1c2cn[nH]c2-c2cc(F)ccc2N1S(=O)(=O)c1ccc(-c2ccccn2)s1 (stereo not drawn) [8-fluoro-4-methyl-5-(5-(pyridin-2-yl)thiophen-2-ylsulfonyl)-4,5-dihydro-1H-pyrazolo[4,3-c]quinoline] | 1 to 10 µM
CC1c2cn[nH]c2-c2cc(F)ccc2N1S(=O)(=O)c1ccccn1 (stereo not drawn) [8-fluoro-4-methyl-5-(pyridin-2-ylsulfonyl)-4,5-dihydro-1H-pyrazolo[4,3-c]quinoline] | 0.101 to 0.5 µM and 0.0001 to 0.1 µM
CC1c2cn[nH]c2-c2cc(F)ccc2N1S(=O)(=O)c1ccc(F)cc1 (stereo not drawn) [8-fluoro-5-(4-fluorophenylsulfonyl)-4-methyl-4,5-dihydro-1H-pyrazolo[4,3-c]quinoline] | 0.0001 to 0.1 µM
Nc1ccc(S(=O)(=O)N2c3cc(F)c(F)cc3-c3[nH]ncc3[C@H]2C2CC2)cc1 [(R)-4-(4-cyclopropyl-7,8-difluoro-1H-pyrazolo[4,3-c]quinolin-5(4H)-ylsulfonyl)aniline] | 0.0001 to 0.1 µM
O=S(=O)(c1ccc(OC(F)F)cc1)N1c2cc(F)c(F)cc2-c2[nH]ncc2[C@H]1C1CC1 [(R)-4-cyclopropyl-5-(4-(difluoromethoxy)phenylsulfonyl)-7,8-difluoro-4,5-dihydro-1H-pyrazolo[4,3-c]quinoline] | 0.0001 to 0.1 µM
O=[N+]([O-])c1ccc(S(=O)(=O)N2c3cc(F)c(F)cc3-c3[nH]ncc3[C@H]2C2CC2)cc1 [(R)-4-cyclopropyl-7,8-difluoro-5-(4-nitrophenylsulfonyl)-4,5-dihydro-1H-pyrazolo[4,3-c]quinoline] | 0.0001 to 0.1 µM
O=S(=O)(c1ccc(OC(F)(F)F)cc1)N1c2cc(OC(F)(F)F)ccc2-c2n[nH]cc2[C@H]1C1CC1 [(R)-4-cyclopropyl-7-(trifluoromethoxy)-5-(4-(trifluoromethoxy)phenylsulfonyl)-4,5-dihydro-2H-pyrazolo[4,3-c]quinoline] | 0.0001 to 0.1 µM
